Patent US12077503B2, “Substituted cyclic amides and their use as herbicides” (FMC CORPORATION, priority 2015, dated 2024)

Columns and labels:
Format in all cases: in vivo
[1] = test system: barnyardgrass (Echinochloa crus-galli); test: Test G Pre-Emergence Protocol; settings: Echinochloa crus-galli, pre-emergence, 312 h, evaluated after 13 days; for pest or weed control at 15.625 g/ha: 15.625 g ai/ha, read-out: Barnyard grass damage rating (100=total damage to plant; 0=no damage to plant); for pest or weed control at 62.5 g/ha: 62.5 g ai/ha, 100=total damage to plant, 0=no damage to plant, read-out: plant damage rating, Barnyardgrass; for pest or weed control at 250 g/ha: 250 g ai/ha, read-out: Barnyardgrass damage rating (100=total damage to plant; 0=no damage to plant)
Outline: (§1)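 Pots of seeds in standard soil were grown for one day in a glasshouse (24/16 °C day/night, 14 h light, 65% humidity), then sprayed with compound in acetone/water 50:50 with 0.5% Tween 20 at 15.625, 62.5 or 250 g/ha. Damage was scored after 13 days on a 0 (none) to 100 (total) scale.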

corn (Zea mays) [2] = test: Test G Pre-Emergence Protocol; settings: Zea mays, pre-emergence, 312 h, evaluated after 13 days; for plant injury at 15.625 g/ha: 15.625 g ai/ha; for plant injury at 15.625 g/ha / plant injury at 250 g/ha: read-out: Corn damage rating (100=total damage to plant; 0=no damage to plant); for plant injury at 62.5 g/ha: 62.5 g ai/ha, 100=total damage to plant, 0=no damage to plant, read-out: plant damage rating, Corn; for plant injury at 250 g/ha: 250 g ai/ha
Outline: as §1

[3] = test system: giant foxtail (Setaria faberi); test: Test G Pre-Emergence Protocol; settings: Setaria faberi, pre-emergence, 312 h, evaluated after 13 days; for pest or weed control at 15.625 g/ha: 15.625 g ai/ha; for pest or weed control at 15.625 g/ha / pest or weed control at 250 g/ha: read-out: Foxtail, Giant damage rating (100=total damage to plant; 0=no damage to plant); for pest or weed control at 62.5 g/ha: 62.5 g ai/ha, 100=total damage to plant, 0=no damage to plant, read-out: plant damage rating, Foxtail, Giant; for pest or weed control at 250 g/ha: 250 g ai/ha
Outline: as §1

[4] = test system: ivy-leaved morning glory (Ipomoea hederacea); test: Test G Pre-Emergence Protocol; settings: Ipomoea, pre-emergence, 312 h, evaluated after 13 days; for pest or weed control at 15.625 g/ha: 15.625 g ai/ha, read-out: Morning-glory, Ivy-leaved damage rating (100=total damage to plant; 0=no damage to plant); for pest or weed control at 62.5 g/ha: 62.5 g ai/ha, 100=total damage to plant, 0=no damage to plant, read-out: plant damage rating, Morningglory, Ivy-leaved; for pest or weed control at 250 g/ha: 250 g ai/ha, read-out: Morningglory, Ivy-leaved damage rating (100=total damage to plant; 0=no damage to plant)
Outline: as §1

[5] = test system: redroot pigweed (Amaranthus retroflexus); test: Test G Pre-Emergence Protocol; settings: Amaranthus retroflexus, pre-emergence, 312 h, evaluated after 13 days; for pest or weed control at 15.625 g/ha: 15.625 g ai/ha; for pest or weed control at 15.625 g/ha / pest or weed control at 250 g/ha: read-out: Pigweed, Redroot damage rating (100=total damage to plant; 0=no damage to plant); for pest or weed control at 62.5 g/ha: 62.5 g ai/ha, 100=total damage to plant, 0=no damage to plant, read-out: plant damage rating, Pigweed, Redroot; for pest or weed control at 250 g/ha: 250 g ai/ha
Outline: as §1

[6] = test system: velvetleaf (Abutilon theophrasti); test: Test G Pre-Emergence Protocol; settings: Abutilon theophrasti, pre-emergence, 312 h, evaluated after 13 days; for pest or weed control at 15.625 g/ha: 15.625 g ai/ha; for pest or weed control at 15.625 g/ha / pest or weed control at 250 g/ha: read-out: Velvetleaf damage rating (100=total damage to plant; 0=no damage to plant); for pest or weed control at 62.5 g/ha: 62.5 g ai/ha, 100=total damage to plant, 0=no damage to plant, read-out: plant damage rating, Velvetleaf; for pest or weed control at 250 g/ha: 250 g ai/ha
Outline: as §1

[7] = test system: barnyardgrass (Echinochloa crus-galli); test: Test G Post-Emergence Protocol; settings: Echinochloa crus-galli, post-emergence, 312 h; for pest or weed control at 15.625 g/ha: 15.625 g ai/ha, evaluated after 13 days (100=total damage to plant; 0=no damage to plant), read-out: Barnyardgrass damage rating; for pest or weed control at 62.5 g/ha: 62.5 g ai/ha, read-out: Barnyardgrass damage rating (100=total damage to plant; 0=no damage to plant); for pest or weed control at 62.5 g/ha / pest or weed control at 250 g/ha: evaluated after 13 days; for pest or weed control at 250 g/ha: 250 g ai/ha, read-out: damage to plant, Barnyardgrass (100=total damage to plant; 0=no damage to plant)
Outline: (§2)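 Sow in soil; grow 8 d (24/16 °C, 14 h light, 65% humidity); spray 15.625/62.5/250 g/ha in acetone:water 50:50 + 0.5% Tween 20; grow on, water twice daily; score damage 0–100 at 13 d.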

corn (Zea mays) [8] = test: Test G Post-Emergence Protocol; settings: Zea mays, post-emergence, 312 h; for plant injury at 15.625 g/ha: 15.625 g ai/ha, evaluated after 13 days (100=total damage to plant; 0=no damage to plant), read-out: Corn damage rating; for plant injury at 62.5 g/ha: 62.5 g ai/ha, read-out: Corn damage rating (100=total damage to plant; 0=no damage to plant); for plant injury at 62.5 g/ha / plant injury at 250 g/ha: evaluated after 13 days; for plant injury at 250 g/ha: 250 g ai/ha, read-out: damage to plant, Corn (100=total damage to plant; 0=no damage to plant)
Outline: as §2

[9] = test system: giant foxtail (Setaria faberi); test: Test G Post-Emergence Protocol; settings: Setaria faberi, post-emergence, 312 h; for pest or weed control at 15.625 g/ha: 15.625 g ai/ha, evaluated after 13 days (100=total damage to plant; 0=no damage to plant), read-out: Foxtail, Giant damage rating; for pest or weed control at 62.5 g/ha: 62.5 g ai/ha, read-out: Foxtail, Giant damage rating (100=total damage to plant; 0=no damage to plant); for pest or weed control at 62.5 g/ha / pest or weed control at 250 g/ha: evaluated after 13 days; for pest or weed control at 250 g/ha: 250 g ai/ha, read-out: damage to plant, Foxtail, Giant (100=total damage to plant; 0=no damage to plant)
Outline: as §2

[10] = test system: ivy-leaved morning glory (Ipomoea hederacea); test: Test G Post-Emergence Protocol; settings: Ipomoea, post-emergence, 312 h; for pest or weed control at 15.625 g/ha: 15.625 g ai/ha, evaluated after 13 days (100=total damage to plant; 0=no damage to plant), read-out: Morningglory, Ivy-leaved damage rating; for pest or weed control at 62.5 g/ha: 62.5 g ai/ha, read-out: Morningglory, Ivy-leaved damage rating (100=total damage to plant; 0=no damage to plant); for pest or weed control at 62.5 g/ha / pest or weed control at 250 g/ha: evaluated after 13 days; for pest or weed control at 250 g/ha: 250 g ai/ha, read-out: damage to plant, Morningglory, Ivy-leaved (100=total damage to plant; 0=no damage to plant)
Outline: as §2

[11] = test system: redroot pigweed (Amaranthus retroflexus); test: Test G Post-Emergence Protocol; settings: Amaranthus retroflexus, post-emergence, 312 h; for pest or weed control at 15.625 g/ha: 15.625 g ai/ha, evaluated after 13 days (100=total damage to plant; 0=no damage to plant), read-out: Pigweed, Redroot damage rating; for pest or weed control at 62.5 g/ha: 62.5 g ai/ha, read-out: Pigweed, Redroot damage rating (100=total damage to plant; 0=no damage to plant); for pest or weed control at 62.5 g/ha / pest or weed control at 250 g/ha: evaluated after 13 days; for pest or weed control at 250 g/ha: 250 g ai/ha, read-out: damage to plant, Pigweed, Redroot (100=total damage to plant; 0=no damage to plant)
Outline: as §2

[12] = test system: velvetleaf (Abutilon theophrasti); test: Test G Post-Emergence Protocol; settings: Abutilon theophrasti, post-emergence, 312 h; for pest or weed control at 15.625 g/ha: 15.625 g ai/ha, evaluated after 13 days (100=total damage to plant; 0=no damage to plant), read-out: Velvetleaf damage rating; for pest or weed control at 62.5 g/ha: 62.5 g ai/ha, read-out: Velvetleaf damage rating (100=total damage to plant; 0=no damage to plant); for pest or weed control at 62.5 g/ha / pest or weed control at 250 g/ha: evaluated after 13 days; for pest or weed control at 250 g/ha: 250 g ai/ha, read-out: damage to plant, Velvetleaf (100=total damage to plant; 0=no damage to plant)
Outline: as §2

Row | Structure (SMILES) | pest or weed control at 15.625 g/ha [1] [%] | pest or weed control at 62.5 g/ha [1] [%] | pest or weed control at 250 g/ha [1] [%] | plant injury at 15.625 g/ha (corn (Zea mays) [2]) [%] | plant injury at 62.5 g/ha (corn (Zea mays) [2]) [%] | plant injury at 250 g/ha (corn (Zea mays) [2]) [%] | pest or weed control at 15.625 g/ha [3] [%] | pest or weed control at 62.5 g/ha [3] [%] | pest or weed control at 250 g/ha [3] [%] | pest or weed control at 15.625 g/ha [4] [%] | pest or weed control at 62.5 g/ha [4] [%] | pest or weed control at 250 g/ha [4] [%] | pest or weed control at 15.625 g/ha [5] [%] | pest or weed control at 62.5 g/ha [5] [%] | pest or weed control at 250 g/ha [5] [%] | pest or weed control at 15.625 g/ha [6] [%] | pest or weed control at 62.5 g/ha [6] [%] | pest or weed control at 250 g/ha [6] [%] | pest or weed control at 15.625 g/ha [7] [%] | pest or weed control at 62.5 g/ha [7] [%] | other results
1 | CN1C[C@H](c2ccc(C(F)(F)F)cc2)[C@@H](C(=O)Nc2ccc(F)cc2S(C)(=O)=O)C1=O (racemic) [Compound 1483] | 40 | 40 | 70 | 30 | 20 | 40 | 30 | 60 | 80 | 0 | 0 | 0 | 20 | 40 | 80 | 0 | 0 | 0 | 30 | 40 | pest or weed control at 250 g/ha [7]: 70%; plant injury at 15.625 g/ha (corn (Zea mays) [8]): 20%; plant injury at 62.5 g/ha (corn (Zea mays) [8]): 30%; plant injury at 250 g/ha (corn (Zea mays) [8]): 50%; pest or weed control at 15.625 g/ha [9]: 30%; pest or weed control at 62.5 g/ha [9]: 60%; pest or weed control at 250 g/ha [9]: 70%; pest or weed control at 15.625 g/ha [10]: 0%; pest or weed control at 62.5 g/ha [10]: 0%; pest or weed control at 250 g/ha [10]: 0%; pest or weed control at 15.625 g/ha [11]: 40%; pest or weed control at 62.5 g/ha [11]: 30%; pest or weed control at 250 g/ha [11]: 60%; pest or weed control at 15.625 g/ha [12]: 10%; pest or weed control at 62.5 g/ha [12]: 10%; pest or weed control at 250 g/ha [12]: 30%
2 | COc1c(Cl)ccc([C@H]2CNC(=O)[C@@H]2C(=O)Nc2cccc(F)c2F)c1F (racemic) [Compound 1472] | 10 | 40 | 80 | 0 | 0 | 20 | 10 | 50 | 80 | 0 | 0 | 0 | 0 | 0 | 0 | 0 | 0 | 0 | 10 | 30 | pest or weed control at 250 g/ha [7]: 50%; plant injury at 15.625 g/ha (corn (Zea mays) [8]): 10%; plant injury at 62.5 g/ha (corn (Zea mays) [8]): 20%; plant injury at 250 g/ha (corn (Zea mays) [8]): 40%; pest or weed control at 15.625 g/ha [9]: 10%; pest or weed control at 62.5 g/ha [9]: 50%; pest or weed control at 250 g/ha [9]: 70%; pest or weed control at 15.625 g/ha [10]: 20%; pest or weed control at 62.5 g/ha [10]: 20%; pest or weed control at 250 g/ha [10]: 20%; pest or weed control at 15.625 g/ha [11]: 0%; pest or weed control at 62.5 g/ha [11]: 10%; pest or weed control at 250 g/ha [11]: 10%; pest or weed control at 15.625 g/ha [12]: 0%; pest or weed control at 62.5 g/ha [12]: 10%; pest or weed control at 250 g/ha [12]: 10%
3 | CN1C[C@@H](c2cnc(Cl)c(F)c2)[C@H](C(=O)Nc2cccc(F)c2F)C1=O (racemic) [Compound 1486] | 30 | 60 | 90 | 10 | 20 | 40 | 40 | 90 | 90 | 0 | 0 | 0 | 0 | 0 | 60 | 0 | 0 | 10 | 40 | 60 | pest or weed control at 250 g/ha [7]: 70%; plant injury at 15.625 g/ha (corn (Zea mays) [8]): 10%; plant injury at 62.5 g/ha (corn (Zea mays) [8]): 10%; plant injury at 250 g/ha (corn (Zea mays) [8]): 60%; pest or weed control at 15.625 g/ha [9]: 60%; pest or weed control at 62.5 g/ha [9]: 60%; pest or weed control at 250 g/ha [9]: 70%; pest or weed control at 15.625 g/ha [10]: 0%; pest or weed control at 62.5 g/ha [10]: 0%; pest or weed control at 250 g/ha [10]: 0%; pest or weed control at 15.625 g/ha [11]: 0%; pest or weed control at 62.5 g/ha [11]: 0%; pest or weed control at 250 g/ha [11]: 30%; pest or weed control at 15.625 g/ha [12]: 0%; pest or weed control at 62.5 g/ha [12]: 0%; pest or weed control at 250 g/ha [12]: 10%
